According to patent publication US20250003951A1, “METHOD AND COMPOSITION” (Oxford University Innovation Limited, priority 2021, published 2025):

Assays:
Format in all cases: cell-based, human
[1] = system: peptide-responsive T cells from post-transplant blood; assay: Flow cytometry immunophenotyping of peptide-responsive T cells (IFNγ, TNFα, CD107a) after 12-day peptide culture and restimulation
Description: (§1) FIG. 3: Characterisation of GvL T cell responses. a) IFNγ ELISpot results following stimulation of post-transplant PB with GvL peptide+/−antibodies blocking HLA pan-class I (W6/32), pan-class II (Tü39), HLA-DR (L243), -DQ (Tü169) and -DP (B7/21). Negative control without peptide (DMSO). b) Flow cytometry with intracellular cytokine staining showing % T cells positive for IFNγ, TNFα, CD107a after treatment with peptide vs no treatment. […] The generic workflow established in Example 1 was used to identify the antigenic basis of GvL in further patients. In brief, mismatched peptides identified by in silico prediction and mass spectrometry for each patient were screened for their ability to activate donor-derived T cells taken from the patient post-allo-SCT, using IFNγ ELISpot assays. HLA restriction was investigated using IFNγ ELISpots with HLA-blocking antibodies. The nature and frequency of peptide-responsive T cells (i.e. cells producing cytokines (IFNγ, TNFα) and expression of the degranulation marker (CD107a) following peptide contact) were assessed by culturing post-transplant blood with peptide for 12 days and then stimulating with the peptide. Responses were assessed by flow cytometry.

[2] = system: activated (IFNγ+) CD4+ or CD8+ T cells from post-transplant PBMCs; assay: IFNγ catch FACS sort and single cell RNA sequencing with V(D)J enrichment to identify antigen-specific TCR clones; settings: for Size of expanded T cell clone in activated (IFNγ+) repertoire after peptide stimulation and IFNγ catch: figure legends FIG. 8-22, single cell V(D)J sequencing
Description: The following protocol was used to determine the sequence of TCRs recognising peptide 1 (SEQ ID NO: 1) or peptide 2 (SEQ ID NO: 2): • 1. Culture post-transplant blood with peptide (identified from IFNγ ELISpot screen) to enrich for antigen-specific T cells. • 2. After peptide stimulation, FACS sort activated (IFNγ+) T cells and control (IFNγ−) T cells. • 3. Single cell RNA sequencing with V (D) J enrichment. […]
The following protocol was used to determine the sequence of TCRs recognising the alloreactive peptide antigens set out in Table 3 above: • 1. Thaw post-transplant PBMCs from the patient from whom the peptide antigen was detected. Culture the cells with peptide, IL-2 and IL-7 for 12 days. • 2. Rest cells overnight. • 3. Stimulate cells with peptide for 6 hours. • 4. Stain cells for FACS using antibodies and IFNγ catch reagent. • 5. FACS sorting of activated (IFNγ+) CD4+ or CD8+ T cells and negative control (IFNγ−) populations. • 6. 10× Chromium single cell RNA sequencing with V (D) J enrichment.
T cells recognizing 18 of the 24 peptides set out in Table 3 (including PADI4) were detectable by FACS. Of these, 17 were detectable using IFNγ catch. Data are shown in Tables 4 and 5 below, and in FIGS. 8 to 23. In Table 5, clones were included that were (a) greater in size than the largest clone in the control repertoire, or (b)>10% of the repertoire, even if not larger than the largest clone in the control repertoire.

[3] = system: donor-derived T cells taken from the patient post-allo-SCT; assay: IFNγ ELISpot with HLA-blocking antibodies (HLA restriction); settings: for Restricting HLA allele: candidate alleles separated by /
Description: as §1

[4] = Table 3, post-transplant blood cultured with peptide 12 days, then restimulated
[5] = Table 3, IFNγ ELISpots with HLA-blocking antibodies

Row | Sequence | CD4/CD8 responses [1, 4] | Frequency of response (% IFN* cells amongst CD4+ or CD8+ by FACS) [1, 4] | Freq. of response (% IFNγ+ cells amongst CD4+ or CD8+ by FACS) ([1]; Table 4) | CD4/CD8 responses ([1]; Table 4) | Size of expanded T cell clone in activated (IFNγ+) repertoire after peptide stimulation and IFNγ catch [2] [%] | HLA restriction [3, 5] | Restricting HLA allele ([3]; Table 3) | HLA restriction ([3]; Table 4) | Clone size (percent repertoire) ([2]; CD8 T cells, expanded TCR clone 1 following peptide stimulation)
1 | PGLISMFSSSQELGAALAQL (listed as Homo sapiens) [OX628-564] | Indeterminate | Not detected | Not detected |  |  |  |  |  | 
2 | DRAEKFNRGIRKLGITPEGQ (listed as Homo sapiens) [OX628-308] | CD4 |  | 1.96% | CD4 | 76.1 |  |  |  | 
3 | LGSLGLIFALTLNRHKYPLN (listed as Homo sapiens) [OX747-157] | CD4 |  | 0.325% | CD4 |  |  |  |  | 
4 | ITVQTVYVQHLITFLDRPIQ (listed as Homo sapiens) [OX628-80] | CD4 |  | 2.36% | CD4 |  | HLA-DR | DRB1*03:01/DRB1*15:01/DRB3*01:01/04/DRB5*01:01:01 | HLA-DR | 
5 | QTVYVQHLITFLDRPIQMCC (listed as Homo sapiens) [OX628-81] | CD4 |  | 1.12% | CD4 |  | HLA-DR | DRB1*03:01/DRB1*15:01/DRB3*01:01/04/DRB5*01:01:01 | HLA-DR | 
6 | GQKSPRFRRVSCFLRLGRST (listed as Homo sapiens) [OX802-321] | CD4 |  | 5.47% | CD4 |  |  |  |  | 
7 | VSRPELLRESISAFLVPMPT (listed as Homo sapiens) [OX289-075] | CD4 |  | 1.33% | CD4 |  |  |  |  | 
8 | KVVGARGVGKSAFLQAFLGR (listed as Homo sapiens) [OX813-102] | Indeterminate | Not detected | Not detected |  |  | Indeterminate |  |  | 
9 | PLYRQRYQFIKNLVDQHEPK (listed as Homo sapiens) [OX289-074] | CD4 |  | 0.24% | CD4 |  |  |  |  | 
10 | APISLSSFFNVSTLEREVTD (listed as Homo sapiens) [OX747-185] | Likely CD4 | Not detected | Not detected | Likely CD4 |  | HLA-DR | DRB1*04:04:01/DRB1*13:02:01/DRB3*03:01/DRB4*01:03 | HLA-DR | 
11 | VATFPVYTMVAIPIVCKD (listed as Homo sapiens) [OX289-067] | CD8 |  | 0.55% | CD8 |  |  |  |  | 81.1
12 | EKFNRGIRKLGITPEGQSYL (listed as Homo sapiens) [OX628-309] | CD4 |  | 1.06% | CD4 | 76.1 |  |  |  | 
13 | PPLYRQRYQFIKNLVDQHEP (listed as Homo sapiens) [OX289-073] | CD4 |  | 0.36% | CD4 |  |  |  |  | 
14 | LELGAGTGLASIIAATMART (listed as Homo sapiens) [OX747-190] | Likely CD4 | Not detected | Not detected | Likely CD4 |  | HLA-DR | DRB1*04:04:01/DRB1*13:02:01/DRB3*03:01/DRB4*01:03 | HLA-DR | 
